Data reported in patent publication US8952024B2, “Herbicidal pyrimidone derivatives” (E I du Pont de Nemours and Company, priority 2009, dated 2015).

Legend:
Type in all cases: in vivo
[1] = test system: bermudagrass (Cynodon dactylon); experiment: Test B pre-/postemergence plant response; details: Postemergence
How it was run: (§1)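 Compound in solvent + surfactant applied pre-em (loam/sand) or post-em (plants 2–18 cm, peat medium); greenhouse hold 13–15 days; visual 0–100 control score.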

[2] = test system: yellow nutsedge (Cyperus esculentus); experiment: Test B pre-/postemergence plant response; details: Postemergence
How it was run: as §1

[3] = test system: pigweed (Amaranthus retroflexus); experiment: Test B pre-/postemergence plant response; details: Postemergence
How it was run: as §1

[4] = test system: lambsquarters (Chenopodium album); experiment: Test B pre-/postemergence plant response; details: Postemergence
How it was run: as §1

[5] = test system: wheat (Triticum aestivum); experiment: Test B pre-/postemergence plant response; details: Postemergence
How it was run: as §1

[6] = test system: downy bromegrass (Bromus tectorum); experiment: Test B pre-/postemergence plant response; details: Postemergence
How it was run: as §1

[7] = test system: Surinam grass (Brachiaria decumbens); experiment: Test B pre-/postemergence plant response; details: Postemergence
How it was run: as §1

[8] = test system: woolly cupgrass (Eriochloa villosa); experiment: Test B pre-/postemergence plant response; details: Postemergence
How it was run: as §1

[9] = test system: ducksalad (Heteranthera limosa); experiment: Test B flooded paddy test; details: for Plant response rating, Ducksalad: Flood (flooded paddy test), 13 to 15 days
How it was run: (§2)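 Ratings are visual, 0–100 (100 = complete control), taken versus untreated controls 13 to 15 days after treatment in the greenhouse. Compound went straight into paddy water held 3 cm above soil, applied to 2-leaf-stage plants of four species.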

rice (Oryza sativa) = experiment: Test B flooded paddy test; details: for Plant response rating, Rice: Flood (flooded paddy test), 13 to 15 days
How it was run: as §2

[10] = test system: umbrella sedge (Cyperus difformis); experiment: Test B flooded paddy test; details: for Plant response rating, Sedge, Umbrella: Flood (flooded paddy test), 13 to 15 days
How it was run: as §2

[11] = test system: barnyardgrass (Echinochloa crus-galli); experiment: Test B flooded paddy test; details: for Plant response rating, Barnyardgrass: Flood (flooded paddy test), 13 to 15 days
How it was run: as §2

[12] = 31 g ai/ha, 0 to 100 scale (0 no effect, 100 complete control)
[13] = 62 g ai/ha, scale 0 to 100 (0 no effect, 100 complete control)
[14] = 125 g ai/ha, scale 0 to 100 (0 no effect, 100 complete control)
[15] = 250 g ai/ha, scale 0 to 100 (0 no effect, 100 complete control), 13 to 15 days
[16] = 250 g ai/ha, flooded paddy test, visual rating on 0 to 100 scale (0 no effect, 100 complete control) after 13 to 15 days
[17] = 62 g ai/ha, scale of 0 to 100 where 0 is no effect and 100 is complete control
[18] = 125 g ai/ha, scale 0 to 100, 0 is no effect, 100 is complete control
[19] = Flood, 31 g ai/ha, scale 0 to 100 (0 no effect, 100 complete control)

O=C1CCCC(O)=C1C(=O)c1cnc(-c2ccc(F)cc2)n(C2CCCCC2)c1=O [Compound 197] was tested, and the “Plant response rating, Bermudagrass” value [1, 12] was 95, the “Plant response rating, Bermudagrass” value [1, 13] was 100 and the “Plant response rating, Bermudagrass” value [1, 14] was 100. For the same molecule, the “Plant response rating, Bermudagrass” value [1, 15] was 100, the “Plant response rating, Nutsedge, Yellow” value [2, 12] was 45 and the “Plant response rating, Nutsedge, Yellow” value [2, 13] was 55. For the same molecule, the “Plant response rating, Nutsedge, Yellow” value [2, 14] was 65, the “Plant response rating, Nutsedge, Yellow” value [2, 15] was 75 and the “Plant response rating, Pigweed” value [3, 12] was 80. The “Plant response rating, Pigweed” value [3, 13] was 90, the “Plant response rating, Pigweed” value [3, 15] was 100 and the “Plant response rating, Lambsquarters” value [4, 12] was 95. The “Plant response rating, Lambsquarters” value [4, 13] was 100, the “Plant response rating, Lambsquarters” value [4, 14] was 100 and the “Plant response rating, Lambsquarters” value [4, 15] was 100. The “Plant response rating, Wheat” value [5, 12] was 0, the “Plant response rating, Wheat” value [5, 13] was 0 and the “Plant response rating, Wheat” value [5, 15] was 40. For the same molecule, the “Plant response rating, Bromegrass, Downy” value [6, 12] was 15, the “Plant response rating, Bromegrass, Downy” value [6, 13] was 15 and the “Plant response rating, Bromegrass, Downy” value [6, 14] was 30. For the same molecule, the “Plant response rating, Bromegrass, Downy” value [6, 15] was 30, the “Plant response rating, Surinam Grass” value [7, 12] was 50 and the “Plant response rating, Surinam Grass” value [7, 13] was 55. The “Plant response rating, Surinam Grass” value [7, 15] was 70, the “Plant response rating, Cupgrass, Woolly” value [8, 12] was 70 and the “Plant response rating, Cupgrass, Woolly” value [8, 13] was 85. The “Plant response rating, Cupgrass, Woolly” value [8, 14] was 90, the “Plant response rating, Cupgrass, Woolly” value [8, 15] was 98 and the “Plant response rating, Flood, Ducksalad” value [9, 16] was 85. The “Plant response rating, Ducksalad” value [9, 17] was 65, the “Plant response rating, Ducksalad” value [9, 18] was 80 and the “Ducksalad plant response rating” value [9, 19] was 65. For the same molecule, the “Plant response rating, Flood, Rice” value (rice (Oryza sativa); [16]) was 45, the “Plant response rating, Rice” value (rice (Oryza sativa); [17]) was 0 and the “Plant response rating, Rice” value (rice (Oryza sativa); [18]) was 30. The “Rice plant response rating” value (rice (Oryza sativa); [19]) was 0, the “Plant response rating, Flood, Sedge, Umbrella” value [10, 16] was 85 and the “Plant response rating, Sedge, Umbrella” value [10, 17] was 70. The “Plant response rating, Sedge, Umbrella” value [10, 18] was 75, the “Sedge, Umbrella plant response rating” value [10, 19] was 65 and the “Plant response rating, Flood, Barnyardgrass” value [11, 16] was 30. For the same molecule, the “Plant response rating, Barnyardgrass” value [11, 17] was 0, the “Plant response rating, Barnyardgrass” value [11, 18] was 20 and the “Barnyardgrass plant response rating” value [11, 19] was 0.
